One assay has as its target T1, Tubulin alpha chain (Sus scrofa, UniProt P02550). In words: Inhibition of tubulin polymerization interacting at the colchicine binding site.
T1 sequence (P02550 whole entry, looked up): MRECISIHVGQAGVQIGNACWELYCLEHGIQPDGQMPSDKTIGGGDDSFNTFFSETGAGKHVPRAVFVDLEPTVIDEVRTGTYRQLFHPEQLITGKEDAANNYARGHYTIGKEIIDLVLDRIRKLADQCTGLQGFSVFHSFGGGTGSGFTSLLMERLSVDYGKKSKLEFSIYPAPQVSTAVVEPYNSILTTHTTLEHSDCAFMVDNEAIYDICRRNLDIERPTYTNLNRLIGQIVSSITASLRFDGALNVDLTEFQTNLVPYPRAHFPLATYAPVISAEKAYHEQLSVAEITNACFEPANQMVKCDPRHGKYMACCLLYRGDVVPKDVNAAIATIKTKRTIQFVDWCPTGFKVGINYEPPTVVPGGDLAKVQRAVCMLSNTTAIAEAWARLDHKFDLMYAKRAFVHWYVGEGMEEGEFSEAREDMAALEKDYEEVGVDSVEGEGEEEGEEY
A word on the IC50: it is the concentration at which inhibition is half-maximal. Low readings indicate inhibition by little substance, high ones a need for much substance. `Cc1cnc2nc(-c3cccc(F)c3)cc(O)c2c1` had a 50% inhibitory concentration (IC50) of 0.631 µM.

The next assay deals with T1, Tubulin alpha chain.
Consider `Oc1cc(-c2cccs2)nc2cc3c(cc12)OCO3`, for which inhibition was half-maximal at 2.19 µM (IC50).

In turn, `COc1cccc([C@H]2CC(=O)c3cc4c(cc3N2)OCO4)c1` showed an IC50 of 2.34 µM.

Regarding `COc1cccc([C@@H]2CC(=O)c3cc4c(cc3N2)OCO4)c1`, inhibition was half-maximal at 0.692 µM (IC50).

`COc1cccc(-c2cc(O)c3ccccc3n2)c1` gave an IC50 of 1.41 µM.

`COc1cccc(-c2cc(O)c3cccnc3n2)c1` gave an IC50 of 0.955 µM.

Take `COc1cc2c(c(OC)c1O)-c1ccc(SC)c(=O)cc1[C@@H](NC(C)=O)CC2`: the 50% inhibitory concentration (IC50) is 1.51 µM.

Molecule `COc1cccc(-c2cc(O)c3cc4c(cc3n2)OCO4)c1` had an IC50 of 0.575 µM.

In turn, `COc1cc2c(c(OC)c1OC)-c1ccc(SC)c(=O)cc1[C@@H](NCc1ccc([N+](=O)[O-])cc1)CC2` had an IC50 of 2.29 µM.

The molecule `COc1ccc(CN[C@H]2CCc3cc(OC)c(OC)c(OC)c3-c3ccc(SC)c(=O)cc32)c(OC)c1OC` showed a half-maximal inhibitory concentration (IC50) of 2.29 µM.

`COc1cc2c(c(OC)c1OC)-c1ccc(SC)c(=O)cc1[C@@H](COC(=O)c1ccccc1F)C2` showed an IC50 of 3.63 µM.

For the molecule `COc1cc2c(c(OC)c1OC)-c1ccc(SC)c(=O)cc1[C@@H](OC(=O)C13CCC(C)(C(=O)O1)C3(C)C)CC2` (some centres not stated), the IC50 was 1.41 µM.

In turn, `COc1cccc(-c2cc(O)c3ccc(C)nc3n2)c1` had an IC50 of 0.759 µM.

For `Cc1cc(C)c2c(O)cc(-c3cccc(F)c3)nc2n1`, the IC50 was 0.741 µM.

In turn, `COc1c(O)cc2c(c1OC)-c1ccc(SC)c(=O)cc1[C@@H](NC(=O)CC(C)=O)CC2` showed a 50% inhibitory concentration (IC50) of 1.7 µM.

`COc1cc2c(c(OC)c1OC)-c1ccc(SC)cc1[C@@H](O)C=C2` gave an IC50 of 1.82 µM.

The molecule `Cc1ccc2c(O)cc(-c3sccc3C)nc2n1` showed an IC50 of 2.82 µM.

For the molecule `Oc1cc(-c2ccc3ccccc3c2)nc2ncccc12`, half-maximal inhibition (IC50) required 14.1 µM.

`COc1cccc(-c2cc(O)c3cc(C)cnc3n2)c1` showed an IC50 of 0.794 µM.

`COc1ccccc1-c1cc(O)c2cc(C)cnc2n1` showed a 50% inhibitory concentration (IC50) of 18.2 µM.

In turn, `Oc1cccc(-c2cc(O)c3cc4c(cc3n2)OCO4)c1` showed an IC50 of 0.468 µM.

Turning to `COc1cc2c(c(OC)c1OC)-c1ccc(SC)c(=O)cc1[C@@H](NC(=O)CC(C)=O)CC2`, it took 1.41 µM to reach half-maximal inhibition (IC50).

In turn, `COc1cc2c(c(OC)c1OC)-c1ccc(SC)cc1[C@H](OC(=O)c1cccnc1)CC2` had an IC50 of 2.4 µM.

Take `Nc1cccc(-c2cc(O)c3cc4c(cc3n2)OCO4)c1`: the half-inhibitory concentration (IC50) was 0.724 µM.

Consider `CCCC(=O)O[C@H]1CCc2cc(OC)c(OC)c(OC)c2-c2ccc(SC)cc21`, for which half-maximal inhibition (IC50) was put at 2.82 µM.

In turn, `Cc1cccc(-c2cc(O)c3cccnc3n2)c1` showed an IC50 of 3.31 µM.

Consider `CCCC(=O)O[C@@H]1CCc2cc(OC)c(OC)c(OC)c2-c2ccc(SC)cc21`, for which the IC50 is 4.79 µM.

As for `COc1ccc2c(c1)CCCc1cc(OC)c(OC)c(OC)c1-2`, the IC50 is 1.91 µM.

`COc1ccc2c(c1)C=CCc1cc(OC)c(OC)c(OC)c1-2` had an IC50 of 2.19 µM.

`COc1cc2c(c(OC)c1OC)-c1ccc(SC)c(=O)cc1[C@@H](NC(=O)C13CCC(C)(C(=O)O1)C3(C)C)CC2` (some centres not stated) had an IC50 of 2.4 µM.

The molecule `COc1cc2c(c(OC)c1OC)-c1ccc(SC)cc1[C@@H](OC(=O)c1cccnc1)CC2` gave an IC50 of 4.79 µM.

Regarding `COc1cccc(-c2cc(O)c3cc(N(C)C)ccc3n2)c1`, inhibition was half-maximal at 0.38 µM (IC50).

Take `COc1cc2c(c(OC)c1OC)-c1ccc(SC)c(=O)cc1[C@@H](NCc1ccc(F)cc1)CC2`: the 50% inhibitory concentration (IC50) is 3.24 µM.

Turning to `Cc1ccc2c(O)cc(-c3cc(C)sc3C)nc2n1`, the IC50 was 4.79 µM.

With `COc1cc2c(c(OC)c1OC)-c1ccc(SC)c(=O)cc1[C@@H](NCc1ccc(C#N)cc1)CC2`, the concentration for half-maximal inhibition (IC50) was 2.51 µM.

Take `Oc1cc(-c2cccc3ccccc23)nc2ncccc12`: the concentration for half-maximal inhibition (IC50) is 1.1 µM.

As for `COc1cc2c(c(OC)c1OC)-c1ccc(SC)c(=O)cc1[C@@H](COC(=O)c1cccc(F)c1)C2`, the IC50 is 3.39 µM.

Turning to `Cc1cccc(-c2cc(O)c3ccc(C)nc3n2)c1`, the midpoint of inhibition, the IC50, lay at 1.91 µM.

On to `Oc1cc(-c2cccc(Cl)c2)nc2ncccc12`, for which the IC50 is 1.51 µM.

Molecule `COc1cccc(-c2cc(O)c3c(Cl)ccnc3n2)c1` showed an IC50 of 0.724 µM.

With `Cc1ccc2c(O)cc(-c3ccsc3)nc2n1`, the IC50 was 7.94 µM.

Take `Cc1ccnc2nc(-c3ccc4ccccc4c3)cc(O)c12`: the concentration for half-maximal inhibition (IC50) was 1.82 µM.

In turn, `COc1c(O)cc2c(c1OC)-c1ccc(SC)c(=O)cc1[C@@H](NC(C)=O)CC2C=O` (some centres not stated) showed an IC50 of 2.82 µM.

Regarding `COc1ccc2c(c1)CC=Cc1cc(OC)c(OC)c(OC)c1-2`, the IC50 is 1.51 µM.

Molecule `COc1cccc(-c2cc(O)c3c(C)cc(C)nc3n2)c1` had an IC50 of 0.871 µM.

As to `Cc1ccnc2nc(-c3ccc(F)cc3)cc(O)c12`, the IC50 is 18.2 µM.

As for `COc1cc2c(c(OC)c1OC)-c1ccc(SC)cc1[C@@H](OC(C)=O)CC2`, the IC50 was 2.82 µM.

As for `Oc1cc(-c2ccc3ccccc3c2)nc2ncc(Cl)cc12`, it took 2.51 µM to reach half-maximal inhibition (IC50).

For `COc1cc2c(c(OC)c1OC)-c1ccc(SC)cc1[C@H](OC(C)=O)CC2`, the midpoint of inhibition, the IC50, lay at 3.09 µM.

Turning to `Cc1ccc2c(O)cc(-c3cccs3)nc2n1`, the IC50 is 6.03 µM.

The molecule `COc1cccc(-c2cc(O)c3c(Br)ccnc3n2)c1` had an IC50 of 1.51 µM.

Molecule `Cc1ccc2c(O)cc(-c3ccc4ccccc4c3)nc2n1` gave an IC50 of 5.13 µM.

`Oc1cc(-c2cccc(F)c2)nc2cc3c(cc12)OCO3`: the IC50 is 0.525 µM.

Molecule `Cc1ccc2c(O)cc(-c3ccc(Cl)cc3)nc2n1` showed an IC50 of 11 µM.

The molecule `Cc1cccc(-c2cc(O)c3cc(C)cnc3n2)c1` had an IC50 of 1.51 µM.

In turn, `Cc1cnc2nc(-c3ccc(Cl)cc3)cc(O)c2c1` had an IC50 of 2 µM.

In turn, `Cc1ccc(-c2cc(O)c3c(C)ccnc3n2)cc1` gave an IC50 of 2.88 µM.

Take `Cc1ccc(-c2cc(O)c3c(C)cc(C)nc3n2)cc1`: the concentration for half-maximal inhibition (IC50) was 10 µM.

With `Cc1ccc(-c2cc(O)c3cc(C)cnc3n2)cc1`, the half-inhibitory concentration (IC50) is 2.4 µM.

Regarding `COc1ccc(-c2cc(O)c3cc(C)cnc3n2)cc1`, the half-maximal inhibitory concentration (IC50) is 7.76 µM.

On to `COc1ccc(-c2cc(O)c3c(C)ccnc3n2)cc1`, for which the midpoint of inhibition, the IC50, lay at 8.71 µM.

On to `Cc1ccc(-c2cc(O)c3ccc(C)nc3n2)cc1`, for which 4.9 µM corresponded to half-maximal inhibition (IC50).

For `Cc1cnc2nc(-c3sccc3C)cc(O)c2c1`, the IC50 was 3.8 µM.

In turn, `COc1cc2c(c(OC)c1OC)-c1ccc(SC)c(=O)cc1[C@@H](OC(=O)c1cccnc1)CC2` had an IC50 of 0.759 µM.

`CNc1cccc(-c2cc(O)c3cc4c(cc3n2)OCO4)c1`: the IC50 is 0.646 µM.

Consider `Cc1ccc2c(O)cc(-c3ccc(Br)s3)nc2n1`, for which the IC50 was 1.51 µM.

Consider `COc1cc2c(c(OC)c1O)-c1ccc(SC)c(=O)cc1[C@@H](NC(=O)CC(C)=O)CC2`, for which the half-maximal inhibitory concentration (IC50) was 3.31 µM.

`Cc1cnc2nc(-c3cccc(Cl)c3)cc(O)c2c1`: the IC50 is 0.724 µM.

The molecule `Cc1cc(C)c2c(O)cc(-c3cccc4ccccc34)nc2n1` gave an IC50 of 0.776 µM.

`COc1cc2c(c(OC)c1OC)-c1ccc(SC)c(=O)cc1[C@@H](OC(=O)c1ccncc1)CC2`: the IC50 is 0.562 µM.

`O=C(Oc1cccc(-c2cc(O)c3cc4c(cc3n2)OCO4)c1)c1ccccc1` gave a concentration for half-maximal inhibition (IC50) of 0.447 µM.

`Oc1cc(-c2cccc(C(F)(F)F)c2)nc2cc3c(cc12)OCO3` showed an IC50 of 0.813 µM.

Take `Cc1ccc2c(O)cc(-c3ccc(Cl)s3)nc2n1`: the half-maximal inhibitory concentration (IC50) was 1.7 µM.

`Cc1cnc2nc(-c3cccc4ccccc34)cc(O)c2c1` showed an IC50 of 0.55 µM.

With `Oc1cc(-c2cccc(Cl)c2)nc2cc3c(cc12)OCO3`, the IC50 was 0.372 µM.

`COc1cccc(-c2cc(O)c3cc(N4CCOCC4)ccc3n2)c1` had an IC50 of 0.363 µM.

In turn, `Cc1cnc2nc(-c3ccc4ccccc4c3)cc(O)c2c1` had an IC50 of 2.09 µM.

On to `Cc1ccc2c(O)cc(-c3ccc(C)s3)nc2n1`, for which the IC50 is 1.7 µM.

`Cc1cnc2nc(-c3ccc(C)s3)cc(O)c2c1` had an IC50 of 2.69 µM.

Molecule `Cc1ccc2c(O)cc(-c3cccc(Cl)c3)nc2n1` showed an IC50 of 0.891 µM.

In turn, `Cc1cc(C)c2c(O)cc(-c3cccc(Cl)c3)nc2n1` showed a 50% inhibitory concentration (IC50) of 0.776 µM.

As for `Oc1cc(-c2ccccc2F)nc2ccc(N3CCCC3)cc12`, it took 0.457 µM to reach half-maximal inhibition (IC50).

`Oc1cc(-c2ccc(F)cc2)nc2ncc(Cl)cc12`: half-maximal inhibition (IC50) required 15.8 µM.

`COc1cc2c(c(OC)c1OC)-c1ccc(SC)c(=O)cc1[C@@H](COC(=O)c1ccc(F)cc1)C2` showed an IC50 of 4.47 µM.

`Cc1ccc2c(=O)cc(-c3cccc(F)c3)[nH]c2n1` had an IC50 of 0.525 µM.

Turning to `Cc1ccnc2nc(-c3cccc4ccccc34)cc(O)c12`, the midpoint of inhibition, the IC50, lay at 0.933 µM.

Take `COc1cc2c(c(OC)c1OC)-c1ccc(SC)cc1[C@H](OC(=O)c1ccccc1)CC2`: the IC50 is 2.69 µM.

As for `Cc1ccc2c(O)cc(-c3cccc4ccccc34)nc2n1`, inhibition was half-maximal at 0.661 µM (IC50).

The molecule `COC(=O)c1ccc2c(c1)C(NC(C)=O)CCc1cc(OC)c(OC)c(OC)c1-2` (configuration not stated) had an IC50 of 1.41 µM.

On to `Cc1ccnc2nc(-c3ccc(Cl)cc3)cc(O)c12`, for which 4.79 µM corresponded to half-maximal inhibition (IC50).

On to `COc1ccc2c(c1)C(NC(C)=O)CCc1cc(OC)c(OC)c(OC)c1-2` (configuration not stated), for which the IC50 was 1.51 µM.

In the case of `COc1cc2c(c(OC)c1OC)-c1ccc(SC)c(=O)cc1[C@@H](COC(=O)c1cccc(C#N)c1)C2`, it took 3.02 µM to reach half-maximal inhibition (IC50).

(Values after ChEMBL document CHEMBL1133658 (J Med Chem, 2000).)
